Data from ChEMBL document CHEMBL1126118, “Synthesis and biological activity of ketomethylene pseudopeptide analogues as thrombin inhibitors” (J Med Chem, 1992).

Experiments:
[1] = species: Homo sapiens; test: Concentration required to double the human alpha-thrombin induced clotting time of human plasma; format: functional
[2] = target: Prothrombin (Homo sapiens, UniProt P00734); test: In vitro inhibitory activity against thrombin
[3] = target: Kallikrein-1 (Homo sapiens, UniProt P06870); test: In vitro inhibitory activity against Kallikrein
Kallikrein-1, sequence (P06870 whole entry): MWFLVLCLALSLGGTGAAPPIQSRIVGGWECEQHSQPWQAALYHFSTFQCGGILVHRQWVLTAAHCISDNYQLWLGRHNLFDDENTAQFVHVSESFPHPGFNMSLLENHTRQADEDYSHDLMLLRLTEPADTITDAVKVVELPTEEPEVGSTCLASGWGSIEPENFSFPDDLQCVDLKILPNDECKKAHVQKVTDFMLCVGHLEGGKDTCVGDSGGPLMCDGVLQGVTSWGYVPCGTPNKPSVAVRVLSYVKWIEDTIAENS

[4] = target: Urokinase-type plasminogen activator (Homo sapiens, UniProt P00749); test: In vitro inhibitory activity against Urokinase-type plasminogen activator
[5] = target: Plasminogen (Rattus norvegicus, UniProt Q01177); test: In vitro inhibitory activity against plasmin
Plasminogen, sequence (Q01177 97-581 limits assumed): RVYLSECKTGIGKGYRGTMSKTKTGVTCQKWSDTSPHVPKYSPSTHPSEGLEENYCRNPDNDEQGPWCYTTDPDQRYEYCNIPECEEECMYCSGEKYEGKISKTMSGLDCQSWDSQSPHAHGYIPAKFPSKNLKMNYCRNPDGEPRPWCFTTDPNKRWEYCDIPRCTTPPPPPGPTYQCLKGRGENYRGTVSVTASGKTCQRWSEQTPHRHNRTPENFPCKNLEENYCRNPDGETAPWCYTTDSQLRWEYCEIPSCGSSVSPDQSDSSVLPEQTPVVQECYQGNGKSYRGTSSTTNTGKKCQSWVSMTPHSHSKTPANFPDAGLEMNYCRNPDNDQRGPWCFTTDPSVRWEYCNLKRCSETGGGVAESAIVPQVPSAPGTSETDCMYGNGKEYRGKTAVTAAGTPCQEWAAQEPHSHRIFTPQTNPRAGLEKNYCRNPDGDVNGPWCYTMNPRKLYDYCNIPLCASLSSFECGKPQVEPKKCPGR
Plasminogen, sequence (Q01177 582-812 limits assumed): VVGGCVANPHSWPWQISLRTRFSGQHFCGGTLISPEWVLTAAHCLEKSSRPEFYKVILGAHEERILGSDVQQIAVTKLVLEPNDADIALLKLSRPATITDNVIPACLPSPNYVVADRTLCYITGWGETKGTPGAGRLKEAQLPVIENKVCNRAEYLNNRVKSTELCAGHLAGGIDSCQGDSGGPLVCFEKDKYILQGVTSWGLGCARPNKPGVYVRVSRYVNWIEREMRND

[6] = target: Coagulation factor X (Homo sapiens, UniProt P00742); test: In vitro inhibitory activity against Coagulation factor X
Coagulation factor X, sequence (P00742 41-179 limits assumed): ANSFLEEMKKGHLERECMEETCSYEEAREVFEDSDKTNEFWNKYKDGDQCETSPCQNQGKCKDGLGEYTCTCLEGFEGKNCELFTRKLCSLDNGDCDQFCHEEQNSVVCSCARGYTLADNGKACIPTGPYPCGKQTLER
Coagulation factor X, sequence (P00742 235-488 limits assumed): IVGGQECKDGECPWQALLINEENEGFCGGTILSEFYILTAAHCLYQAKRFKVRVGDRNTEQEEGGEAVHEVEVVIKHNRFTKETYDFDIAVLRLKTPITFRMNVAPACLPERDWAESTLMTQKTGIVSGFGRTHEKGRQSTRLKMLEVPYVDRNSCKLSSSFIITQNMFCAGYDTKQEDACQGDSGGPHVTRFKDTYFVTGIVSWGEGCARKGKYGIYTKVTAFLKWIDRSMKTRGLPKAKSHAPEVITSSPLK

[7] = species: Homo sapiens; test: Concentration required to double the activated partial thromboplastin time of human plasma was measured; format: functional

| SMILES | Ki [2] [µM] | Ki [3] [µM] | Ki [4] [µM] | Ki [5] [µM] | Ki [6] [µM] | TT [1] [µM] | APTT [7] [µM] |
| --- | --- | --- | --- | --- | --- | --- | --- |
| NC(N)=NCCCC(NC(=O)[C@@H]1CCCN1C(=O)[C@H](N)Cc1ccccc1)C(=O)CCC(=O)N1CCCCC1 (stereo partly specified) | – | – | – | – | – | 4.9 | – |
| NC(N)=NCCCC(NC(=O)[C@@H]1CCCN1C(=O)[C@H](N)Cc1ccc2ccccc2c1)C(=O)CCC(=O)N1CCCCC1 (stereo partly specified) | 2.28 | – | – | – | – | – | – |
| NC(N)=NCCCC(NC(=O)[C@@H]1CCCN1C(=O)C(N)Cc1ccc2ccccc2c1)C(=O)CCC(=O)N1CCCCC1.O=C(O)C(F)(F)F.O=C(O)C(F)(F)F (stereo partly specified) | 11.6 | – | – | – | – | 90 | – |

More lines, main results first:

| Ki [2] [µM] | Ki [3] [µM] | Ki [4] [µM] | Ki [5] [µM] | Ki [6] [µM] | SMILES | TT [1] [µM] | APTT [7] [µM] |
| --- | --- | --- | --- | --- | --- | --- | --- |
| 0.2 | 199 | 494 | 157 | 149 | NC(N)=NCCCC(NC(=O)[C@@H]1CCCN1C(=O)[C@H](N)C(c1ccccc1)c1ccccc1)C(=O)CCC(=O)N1CCCCC1.O=C(O)C(F)(F)F.O=C(O)C(F)(F)F (stereo partly specified) | 0.65 | 8 |
| 1.7 | – | – | – | – | NC(N)=NCCCC(NC(=O)[C@@H]1CCCN1C(=O)[C@@H](N)C(c1ccccc1)c1ccccc1)C(=O)CCC(=O)N1CCCCC1.O=C(O)C(F)(F)F.O=C(O)C(F)(F)F (stereo partly specified) | 7.5 | 100 |
| 0.6 | – | – | – | – | NC(N)=NCCCC(NC(=O)[C@@H]1CCCN1C(=O)C(N)C(c1ccccc1)c1ccccc1)C(=O)CCC(=O)N1CCCCC1.O=C(O)C(F)(F)F.O=C(O)C(F)(F)F (stereo partly specified) | – | 45 |
